These results are taken from US4088778A, “Method for the treatment of hypertension” (priority 1975, dated 1978).

Data set [1] can be described thus: Acute toxicity on rats. Particulars: for LD50: rats. It is filed as in vivo. An excerpt:
(§1) Toxicities of TN and TA will now be described.

The nature of data set [2]: Acute toxicity on mice. It is filed as in vivo.
Source text: as §1

Data set [3] in a line: Subacute and chronic toxicities. The data set is classed as in vivo. As to conditions: rats 100 to 1000 mg/Kg and beagles 100 mg/Kg daily, 3 or 6 months. The protocol:
(B) Subacute and Chronic Toxicities:
TN and TA were separately administered to rats and beagles at daily doses of 100 to 1000 mg/Kg and 100 mg/Kg, respectively, continuously for 3 or 6 months.

Data set [4] in a line: Teratogenetic property test. The data set is classed as in vivo, pregnant mice or pregnant rats. As to conditions: orally, 100 to 1200 mg/Kg. From the text:
(C) Teratogenetic Property Test:

Data set [5] in a line: Hypotensive effect on experimental hypertension caused by DOCA. The data set is classed as in vivo, male wistar rats. The method, then: (A) Hypotensive effect on experimental hypertension caused by administration of desoxycorticosterone (hereinafter referred to as "DOCA"):
Right kidneys were removed from 6-week-old male wistar rats, and a 1% aqueous solution of sodium chloride was given as drinking water and 12.5 mg/Kg of DOCA was intramuscularly injected every week. The change of the blood pressure was examined over a period of 6 weeks.
48 rats, each having one kidney removed, were divided into 6 groups, each consisting of 8 rats, and each group was placed in a cage. With respect to each group, a gum arabic solution was administered to 2 rats as non-administered control animals. 20 mg/Kg of TN was administered once a day to each of two rats among the remaining 6 rats, and 100 mg/Kg of TN was administered once a day to each of two rats among the remaining 4 rats. 88 mg/Kg of TA was administered once a day to each of the remaining two rats. TN and TA were administered in the form of a suspension in gum arabic. The blood pressure was measured by a Shimazu type systolic pressure continuous recording apparatus detecting pulse waves of rats taken in a thermostat fixed box maintained at 30° C.

The nature of data set [6]: Experiment on young SHR (rats of spontaneous hypertension). As to conditions: 88 mg/kg TA. The data set is classed as in vivo, rats (7-week-old female SHR). The method, then: Experiments were conducted by using two classes of rats of spontaneous hypertension (hereinafter referred to as "SHR"; provided by Nippon Rat K.K.) differing in the age. In the first experiment, 9-month-old chronic […] SHR (hereinafter referred to as "old SHR"), and in the second experiment, 7-week-old SHR in which hypertension was advancing (hereinafter referred to as "young SHR") was used.
(B) Experiment on Young SHR:
72 of 7-week-old female SHR (having a body weight of 130 to 175 g) were divided into 9 cages, each consisting of 8 rats. Service water was given as drinking water to rats of two cages among these 9 cages, and these rats were compared with other rats which were given a 1% aqueous solution of sodium chloride as drinking water. In each of the […] cages of rats to which the sodium chloride solution was given, no agent was administered to 2 of 8 rats, 20 mg/Kg of TN was administered to another 2 rats, 100 mg/Kg of TN was administered to still another 2 rats, and 88 mg/Kg of TA was administered to the remaining 2 rats.
After 2 weeks' feeding with the sodium chloride solution, administration was conducted once a day. Within 2 weeks from the start of administration,3 rats in the Control (non-administered) group, one rat in the 20 mg/Kg TN administered group, 3 rats in the 100 mg/Kg TN administered group, 3 rats in the 88 mg/Kg TA administered group and 4 rats in the service water given group were dead. In view of the body weight decrease and the snivel secretion and from the results of autopsy, it was judged that each of them died of pneumonia. The rats that died prior to initiation of the administration were not taken in account in evaluating the experimental results.

The conditions of data set [7]: cited from earlier work.

Read-outs that look alike come from different tables or passages of the source.

For the compound `CC(=O)Oc1c(C)c(C)c2c(c1C)CCC(C)(CCCC(C)CCCC(C)CCCC(C)C)O2` (racemic) [TA, dl-α-tocopheryl acetate], the “animals killed in acute toxicity test” value in data set [1] (mice and rats, maximum amount that can be administered) is reported as “no test animal was killed”. Also, the median lethal dose (LD50) in data set [1] (rat, in vivo, im, I.M., male, read-out: LD50) was > 10000 mg/kg; in data set [1] (rat, in vivo, ip, I.P., male, read-out: LD50), > 2000 mg/kg; in data set [1] (rat, in vivo, iv, I.V., male, read-out: LD50), > 250 mg/kg; in data set [1] (rat, in vivo, po, P.O., male, read-out: LD50), > 15000 mg/kg; in data set [1] (rat, in vivo, sc, S.C., male, read-out: LD50), > 15000 mg/kg; in data set [1] (I.M., female), > 10000 mg/kg. The 50% lethal dose (LD50) in data set [1] (I.V., female) was > 250 mg/kg; in data set [1] (P.O., female), > 15000 mg/kg; in data set [1] (S.C., female) it was > 15000 mg/kg; in data set [2] (I.M., female), > 15000 mg/kg; in data set [2] (I.V., female), > 1000 mg/kg; in data set [2] (P.O., female) it was > 20000 mg/kg. Moreover, the 50% lethal dose (LD50) is > 20000 mg/kg in data set [2] (S.C., female); > 15000 mg/kg in data set [2] (mouse, in vivo, im, I.M., male, read-out: LD50); > 4000 mg/kg in data set [2] (mouse, in vivo, ip, I.P., male, read-out: LD50); > 1000 mg/kg in data set [2] (mouse, in vivo, iv, I.V., male, read-out: LD50); > 20000 mg/kg in data set [2] (mouse, in vivo, po, P.O., male, read-out: LD50); > 20000 mg/kg in data set [2] (mouse, in vivo, sc, S.C., male, read-out: LD50). In data set [3], the deaths entry is on record as “no deaths”. The “haematological, haemetobiological and histological surveys” value in data set [3] is “no manifestation of the toxicity was observed”. In data set [3], the “inhibition of the body weight” value is “inhibition of the body weight was not observed”. The “influences on mother animals, embryos and newborn babies” value in data set [4] is “no influences were observed”. Besides, the teratogenetic property entry in data set [4] is “no teratogenetic property”. Moreover, the “number of rats with blood pressure elevated to 170 mm Hg or higher” value in data set [5] (88 mg/kg of TA once a day, among 12 rats (control 9 among 11)) is recorded as 4 rats. Further, in data set [5] (DOCA rats, old SHR, young SHR), the “hypotensive effect, overall conclusion from pharmacological tests on animals” value is listed as “have a hypotensive effect”. Also, the “dead rats within 6 weeks from the start of the administration” value in data set [6] (among 11 rats, control 5 among 11) is given as 3 rats. Further, the “dead rats within 2 weeks from the start of administration” value in data set [6] (judged pneumonia, control 3) was 3 rats.
As to `NNc1nncc2ccccc12` [Hydralazine], in data set [7] (prior art), the “effect on the heart” value is “increases the amount of blood fed to the heart and the pulse frequency and thus increases the load on the heart”; the hypotensive activity entry is “high hypotensive activity”; the undesirable side effects result is “multiple arthritis resembling rheumatic arthritis and lupus erythematosus”.
Take `COC(=O)[C@H]1[C@H]2C[C@@H]3c4[nH]c5cc(OC)ccc5c4CCN3C[C@H]2C[C@@H](OC(=O)c2cc(OC)c(OC)c(OC)c2)[C@@H]1OC` [Reserpine]: in data set [7] (prior art), the undesirable side effects entry is given as “inhibition of the central nervous system, such as asthenic feeling”.
`NS(=O)(=O)c1cc2c(cc1Cl)NCNS2(=O)=O` [hydrochlorothiazide]: the undesirable side effects result in data set [7] (in vivo) was “hypokalemia, hypercirycemia and manifestation of latent diabetes”. Further, in data set [7] (prior art), the hypotensive activity entry is given as “moderate hypotensive activity”.
As for `C[C@](N)(Cc1ccc(O)c(O)c1)C(=O)O` [l-α-Methyl Dopa], in data set [7] (prior art), the hypotensive activity entry is reported as “high hypotensive activity”; the undesirable side effects result was “mammary hypertrophy, paraesthesia, nightmare and Parkisonism”.
As for `CC(COc1ccccc1)N(CCCl)Cc1ccccc1` (stereo not shown) [phenoxybenzamine], in data set [7] (prior art), the undesirable side effects result was “orthostatic hypotensive asthenia and tachycardia”.

The LD50 is the dose expected to kill half of the subjects tested.
